Results as given in patent publication US10597388B2, “Pyridazinone herbicides” (FMC CORPORATION, priority 2014, dated 2020).

Columns and labels:
Test in all cases: Test D controlled growth environment herbicide test, pre- and postemergence
Type in all cases: in vivo
[1] = system: barley, spring (spring barley, Hordeum vulgare)
How it was run: (§1)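 Pre-emergence: seeds sown in silt loam soil were sprayed with compound in a non-phytotoxic solvent mix containing surfactant. Post-emergence: plants at 2 to 18 cm (1- to 4-leaf stage) in peat moss/vermiculite medium got the same formulation. Visual 0–100 rating versus controls after 14 to 21 d.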

[2] = system: blackgrass (Alopecurus myosuroides)
How it was run: as §1

[3] = system: bluegrass (annual bluegrass, Poa annua)
How it was run: as §1

[4] = system: chamomile (scentless chamomile, Matricaria inodora)
How it was run: as §1

[5] = system: field poppy (Papaver rhoeas)
How it was run: as §1

[6] = system: foxtail, green (green foxtail, Setaria viridis)
How it was run: as §1

[7] = system: lambsquarters (Chenopodium album)
How it was run: as §1

[8] = system: mustard, wild (wild mustard, Sinapis arvensis)
How it was run: as §1

[9] = system: oilseed rape (Brassica napus)
How it was run: as §1

[10] = system: ryegrass, Italian (Italian ryegrass, Lolium multiflorum)
How it was run: as §1

[11] = system: speedwell (bird's-eye speedwell, Veronica persica)
How it was run: as §1

[12] = system: wheat, spring (spring wheat, Triticum aestivum)
How it was run: as §1

[13] = system: wheat, winter (winter wheat, Triticum aestivum)
How it was run: as §1

[14] = Postemergence, 31 g ai/ha, scale 0 to 100 (0 no effect, 100 complete control)
[15] = Postemergence, 125 g ai/ha, visual rating on scale 0 (no effect) to 100 (complete control), 14 to 21 d
[16] = Postemergence, 250 g ai/ha, scale 0 to 100 (0 no effect, 100 complete control)
[17] = Preemergence, 62 g ai/ha, scale 0 to 100 (0 no effect, 100 complete control)
[18] = Preemergence, 125 g ai/ha, scale 0 to 100 (0 no effect, 100 complete control)
[19] = Preemergence, 250 g ai/ha, scale 0 to 100 (0 no effect, 100 complete control)
[20] = postemergence, 62 g ai/ha, scale 0 to 100, 0 no effect, 100 complete control

## CC(=O)Oc1c(Br)nn(C)c(=O)c1-c1c(C)ccc2ccccc12 [Compound 129]
[1]; [14]
  Barley, Spring plant response rating: 20
[1]; [15]
  Plant response rating, Barley, Spring: 30
[1]; [16]
  Plant response rating, Barley, Spring: 30
[1]; Preemergence, 31 g ai/ha
  Plant response rating (scale of 0 to 100), Barley, Spring: 0
[1]; [17]
  Plant response rating, Barley, Spring: 0
[1]; [18]
  Plant response rating, Barley, Spring: 0
[1]; [19]
  Plant response rating, Barley, Spring: 20
[1]; [20]
  Plant response rating, Barley, Spring: 25
[2]; [14]
  Blackgrass plant response rating: 35
[2]; [15]
  Plant response rating, Blackgrass: 60
[2]; [16]
  Plant response rating, Blackgrass: 75
[2]; Preemergence, 31 g ai/ha
  Plant response rating (scale of 0 to 100), Blackgrass: 10
[2]; [17]
  Plant response rating, Blackgrass: 15
[2]; [18]
  Plant response rating, Blackgrass: 55
[2]; [19]
  Plant response rating, Blackgrass: 75
[2]; [20]
  Plant response rating, Blackgrass: 45
[3]; [14]
  Bluegrass plant response rating: 10
[3]; [15]
  Plant response rating, Bluegrass: 20
[3]; [16]
  Plant response rating, Bluegrass: 30
[3]; Preemergence, 31 g ai/ha
  Plant response rating (scale of 0 to 100), Bluegrass: 0
[3]; [17]
  Plant response rating, Bluegrass: 10
[3]; [18]
  Plant response rating, Bluegrass: 25
[3]; [19]
  Plant response rating, Bluegrass: 60
[3]; [20]
  Plant response rating, Bluegrass: 15
[4]; [14]
  Chamomile plant response rating: 100
[4]; [15]
  Plant response rating, Chamomile: 100
[4]; [16]
  Plant response rating, Chamomile: 100
[4]; Preemergence, 31 g ai/ha
  Plant response rating (scale of 0 to 100), Chamomile: 100
[4]; Preemergence, 62 g ai/ha
  Plant response rating (scale of 0 to 100), Chamomile: 100
[4]; [18]
  Plant response rating, Chamomile: 100
[4]; [19]
  Plant response rating, Chamomile: 100
[4]; [20]
  Plant response rating, Chamomile: 98
[5]; [14]
  Field Poppy plant response rating: 70
[5]; [15]
  Plant response rating, Field Poppy: 80
[5]; [16]
  Plant response rating, Field Poppy: 98
[5]; Preemergence, 31 g ai/ha
  Plant response rating (scale of 0 to 100), Field Poppy: 90
[5]; Preemergence, 62 g ai/ha
  Plant response rating (scale of 0 to 100), Field Poppy: 98
[5]; [18]
  Plant response rating, Field Poppy: 100
[5]; [19]
  Plant response rating, Field Poppy: 100
[5]; [20]
  Plant response rating, Field Poppy: 75
[6]; [14]
  Foxtail, Green plant response rating: 80
[6]; [15]
  Plant response rating, Foxtail, Green: 85
[6]; [16]
  Plant response rating, Foxtail, Green: 95
[6]; Preemergence, 31 g ai/ha
  Plant response rating (scale of 0 to 100), Foxtail, Green: 35
[6]; Preemergence, 62 g ai/ha
  Plant response rating (scale of 0 to 100), Foxtail, Green: 70
[6]; [18]
  Plant response rating, Foxtail, Green: 80
[6]; [19]
  Plant response rating, Foxtail, Green: 95
[6]; [20]
  Plant response rating, Foxtail, Green: 80
[7]; [14]
  Lambsquarters plant response rating: 75
[7]; [15]
  Plant response rating, Lambsquarters: 95
[7]; [16]
  Plant response rating, Lambsquarters: 100
[7]; Preemergence, 31 g ai/ha
  Plant response rating (scale of 0 to 100), Lambsquarters: 100
[7]; Preemergence, 62 g ai/ha
  Plant response rating (scale of 0 to 100), Lambsquarters: 75
[7]; [18]
  Plant response rating, Lambsquarters: 100
[7]; [19]
  Plant response rating, Lambsquarters: 100
[7]; [20]
  Plant response rating, Lambsquarters: 90
[8]; [14]
  Mustard, Wild plant response rating: 80
[8]; [15]
  Plant response rating, Mustard, Wild: 98
[8]; [16]
  Plant response rating, Mustard, Wild: 100
[8]; Preemergence, 31 g ai/ha
  Plant response rating (scale of 0 to 100), Mustard, Wild: 75
[8]; Preemergence, 62 g ai/ha
  Plant response rating (scale of 0 to 100), Mustard, Wild: 100
[8]; [18]
  Plant response rating, Mustard, Wild: 100
[8]; [19]
  Plant response rating, Mustard, Wild: 100
[8]; [20]
  Plant response rating, Mustard, Wild: 80
[9]; [14]
  Oilseed Rape plant response rating: 5
[9]; [15]
  Plant response rating, Oilseed Rape: 15
[9]; [16]
  Plant response rating, Oilseed Rape: 70
[9]; Preemergence, 31 g ai/ha
  Plant response rating (scale of 0 to 100), Oilseed Rape: 0
[9]; Preemergence, 62 g ai/ha
  Plant response rating (scale of 0 to 100), Oilseed Rape: 15
[9]; [18]
  Plant response rating, Oilseed Rape: 55
[9]; [19]
  Plant response rating, Oilseed Rape: 100
[9]; [20]
  Plant response rating, Oilseed Rape: 5
[10]; [14]
  Ryegrass, Italian plant response rating: 80
[10]; [15]
  Plant response rating, Ryegrass, Italian: 90
[10]; [16]
  Plant response rating, Ryegrass, Italian: 90
[10]; Preemergence, 31 g ai/ha
  Plant response rating (scale of 0 to 100), Ryegrass, Italian: 70
[10]; Preemergence, 62 g ai/ha
  Plant response rating (scale of 0 to 100), Ryegrass, Italian: 80
[10]; [18]
  Plant response rating, Ryegrass, Italian: 98
[10]; [19]
  Plant response rating, Ryegrass, Italian: 100
[10]; [20]
  Plant response rating, Ryegrass, Italian: 85
[11]; [14]
  Speedwell plant response rating: 35
[11]; [15]
  Plant response rating, Speedwell: 65
[11]; [16]
  Plant response rating, Speedwell: 75
[11]; Preemergence, 31 g ai/ha
  Plant response rating (scale of 0 to 100), Speedwell: 90
[11]; Preemergence, 62 g ai/ha
  Plant response rating (scale of 0 to 100), Speedwell: 100
[11]; [18]
  Plant response rating, Speedwell: 100
[11]; [19]
  Plant response rating, Speedwell: 100
[11]; [20]
  Plant response rating, Speedwell: 60
[12]; [14]
  Wheat, Spring plant response rating: 25
[12]; [15]
  Plant response rating, Wheat, Spring: 50
[12]; [16]
  Plant response rating, Wheat, Spring: 70
[12]; Preemergence, 31 g ai/ha
  Plant response rating (scale of 0 to 100), Wheat, Spring: 25
[12]; Preemergence, 62 g ai/ha
  Plant response rating (scale of 0 to 100), Wheat, Spring: 50
[12]; [18]
  Plant response rating, Wheat, Spring: 60
[12]; [19]
  Plant response rating, Wheat, Spring: 75
[12]; [20]
  Plant response rating, Wheat, Spring: 35
[13]; [14]
  Wheat, Winter plant response rating: 30
[13]; [15]
  Plant response rating, Wheat, Winter: 40
[13]; [16]
  Plant response rating, Wheat, Winter: 55
[13]; Preemergence, 31 g ai/ha
  Plant response rating (scale of 0 to 100), Wheat, Winter: 10
[13]; Preemergence, 62 g ai/ha
  Plant response rating (scale of 0 to 100), Wheat, Winter: 35
[13]; [18]
  Plant response rating, Wheat, Winter: 45
[13]; [19]
  Plant response rating, Wheat, Winter: 60
[13]; [20]
  Plant response rating, Wheat, Winter: 35
